Assay [1] has as its target recombinant human Mcl-1 (residues 171-327) / Bim interaction (Homo sapiens (Human), UniProt Q07820). Briefly: biochemical. The settings on record: read-out: Mcl-1 HTRF IC50. The format is binding. Background: TR-FRET usually uses a lanthanide donor and a delayed reading to cut background.
Assay [2] has as its system human multiple myeloma cell line, OPM-2. The assay is described as follows: Cell viability assay (OPM-2 10 FBS), CellTiter-Glo. The format is cell-based. The essentials: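 Cells were seeded at 3000 cells/well in RPMI 1640 with 10% FBS and exposed to serially diluted compounds for 16 h at 37 °C, 5% CO2.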
For orientation: In ATP-based viability assays light output follows the ATP content of the culture.

Setting [3] is: TR-FRET, Mcl-1(171-327) / biotin-Bim (51-76).
Setting [4] is: Homo sapiens, OPM-2, 16 h, read-out: OPM-2 10% FBS IC50 IP, OPM-2 cells, 10% FBS, 16 h, CellTiter-Glo.
The mark [5] stands for this setting: 0.1 nM Mcl-1(171-327), 0.05 nM biotin-Bim (51-76).
The mark [6] stands for this setting: Homo sapiens, OPM-2, 16 h, read-out: OPM-2 10% FBS IC50 IP, OPM-2 cells, 10% FBS, 16 h incubation.

Read-outs that look alike come from different tables or passages of the source.

Sequence of recombinant human Mcl-1 (residues 171-327) / Bim interaction (Q07820 171-327): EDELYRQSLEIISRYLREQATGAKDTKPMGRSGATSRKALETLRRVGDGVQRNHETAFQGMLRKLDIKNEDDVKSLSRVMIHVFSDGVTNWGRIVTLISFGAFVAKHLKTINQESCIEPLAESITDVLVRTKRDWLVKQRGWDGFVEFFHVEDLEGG

In the case of `C[C@@H]1[C@@H](C)C/C=C/[C@@](O)(c2ccncc2F)[C@@H]2CC[C@H]2CN2C[C@@]3(CCCc4cc(Cl)ccc43)COc3ccc(cc32)C(=O)NS1(=O)=O` (single isomer, unassigned) [Example 100370], the IC50 in assay [1] (setting [3]) was found to be 0.153 nM; in assay [2] (setting [4]) it was 258 nM.

Regarding `CO[C@]1(CN2CCN(C3CC3)CC2)/C=C/C[C@H](C)[C@@H](C)S(=O)(=O)NC(=O)c2ccc3c(c2)N(C[C@@H]2CC[C@H]21)C[C@@]1(CCCc2cc(Cl)ccc21)CO3` [Example 91, (1S,3′R,6′R,7′R,8′E,11′S,12′R)-6-chloro-7′-((4-cyclopropyl-1-piperazinyl)methyl)-7′-methoxy-11′,12′-dimethyl-3,4-dihydro-2H,15′H-spiro[naphthalene-1,22′-[20]oxa[13]thia[1,14]diazatetracyclo [14.7.2.0~3,6~.0~19,24~]pentacosa[8,16,18,24]tetraen]-15′-one 13′,13′-dioxide], the results for the IC50 in assay [1] (setting [5]) and in assay [2] (setting [6]) were 0.203 nM and 559 nM, respectively.

`CO[C@]1(CN2CCN(CC(C)(C)C)CC2)/C=C/C[C@H](C)[C@@H](C)S(=O)(=O)NC(=O)c2ccc3c(c2)N(C[C@@H]2CC[C@H]21)C[C@@]1(CCCc2cc(Cl)ccc21)CO3` [Example 153, (1S,3′R,6′R,7′R,8′E,11′S,12′R)-6-chloro-7′-((4-(2,2-dimethylpropyl)-1-piperazinyl)methyl)-7′-methoxy-11′,12′-dimethyl-3,4-dihydro-2H,15′H-spiro[naphthalene-1,22′-[20]oxa[13]thia[1,14]diazatetracyclo [14.7.2.0~3,6~.0~19,24~]pentacosa[8,16,18,24]tetraen]-15′-one 13′,13′-dioxide]: the values for the IC50 in assay [1] (setting [5]) and in assay [2] (setting [6]) were 0.96 nM and 10800 nM, respectively.

Regarding `COC(=O)C[C@@]1(O)/C=C/C[C@H](C)[C@@H](C)S(=O)(=O)NC(=O)c2ccc3c(c2)N(C[C@@H]2CC[C@H]21)C[C@@]1(CCCc2cc(Cl)ccc21)CO3` [Example 100287, methyl ((1S,3′R,6′R,7′R,8′E,11′S,12′R)-6-chloro-7′-hydroxy-11′,12′-dimethyl-13′,13′-dioxido-15′-oxo-3,4-dihydro-2H-spiro[naphthalene-1,22′-[20]oxa[13]thia[1,14]diazatetracyclo [14.7.2.0~3,6~.0~19,24~]pentacosa[8,16,18,24]tetraen]-7′-yl)acetate], the half-maximal inhibitory concentration (IC50) in assay [1] (setting [3]) is 0.494 nM; in assay [2] (setting [4]), 1870 nM.

In the case of `C[C@@H]1[C@@H](C)C/C=C/[C@@](C)(O)[C@@H]2CC[C@H]2CN2C[C@@]3(CCCc4cc(Cl)ccc43)COc3ccc(cc32)C(=O)NS1(=O)=O` [Example 100182, (1S,3′R,6′R,7′R,8′E,11′S,12′R)-6-chloro-7′-hydroxy-7′,11′,12′-trimethyl-3,4-dihydro-2H,15′H-spiro[naphthalene-1,22′-[20]oxa[13]thia[1,14]diazatetracyclo [14.7.2.0~3,6~.0~19,24~]pentacosa[8,16,18,24]tetraen]-15′-one 13′,13′-dioxide], the IC50 in assay [1] worked out at 0.863 nM; in assay [2] (setting [4]), 827 nM.

For the molecule `C[C@@H]1[C@@H](C)C/C=C/[C@]2(CN3CCN(C)C[C@@H]3CO2)[C@@H]2CC[C@H]2CN2C[C@@]3(CCCc4cc(Cl)ccc43)COc3ccc(cc32)C(=O)NS1(=O)=O` (single isomer, unassigned) [Example 133], the IC50 amounted to 0.189 nM in assay [1] (setting [5]) and 136 nM in assay [2] (read-out: OPM-2 10% FBS IC50 IP, OPM-2 cells, 10% FBS, 16 h incubation).

With `CCOC(=O)C(F)(F)[C@]1(O)/C=C/C[C@H](C)[C@@H](C)S(=O)(=O)NC(=O)c2ccc3c(c2)N(C[C@@H]2CC[C@H]21)C[C@@]1(CCCc2cc(Cl)ccc21)CO3` [Example 100416, ethyl ((1S,3′R,6′R,7′S,8′E,11′S,12′R)-6-chloro-7′-hydroxy-11′,12′-dimethyl-13′,13′-dioxido-15′-oxo-3,4-dihydro-2H-spiro[naphthalene-1,22′-[20]oxa[13]thia[1,14]diazatetracyclo [14.7.2.0~3,6~.0~19,24~]pentacosa[8,16,18,24]tetraen]-7′-yl)(difluoro)acetate], the IC50 was 0.092 nM in assay [1] (setting [3]) and 86 nM in assay [2] (setting [4]).

Turning to `COC(=O)c1nc(C[C@]2(OC)/C=C/C[C@H](C)[C@@H](C)S(=O)(=O)NC(=O)c3ccc4c(c3)N(C[C@@H]3CC[C@H]32)C[C@@]2(CCCc3cc(Cl)ccc32)CO4)oc1C` [Example 100583, methyl 2-(((1S,3′R,6′R,7′S,8′E,11′S,12′R)-6-chloro-7′-methoxy-11′,12′-dimethyl-13′,13′-dioxido-15′-oxo-3,4-dihydro-2H-spiro[naphthalene-1,22′-[20]oxa[13]thia[1,14]diazatetracyclo [14.7.2.0~3,6~.0~19,24~]pentacosa[8,16,18,24]tetraen]-7′-yl)methyl)-5-methyl-1,3-oxazole-4-carboxylate], the IC50 in assay [1] (setting [3]) is 0.124 nM; in assay [2] (setting [4]), 411 nM.

For the molecule `CO[C@]1(c2cncc(CN3CCOCC3)c2)/C=C/C[C@H](C)[C@@H](C)S(=O)(=O)NC(=O)c2ccc3c(c2)N(C[C@@H]2CC[C@H]21)C[C@@]1(CCCc2cc(Cl)ccc21)CO3` (stereo in doubt) [Example 100521], the IC50 stood at 0.197 nM in assay [1] (setting [3]) and 296 nM in assay [2] (setting [4]).

As to `C[C@@H]1[C@@H](C)C/C=C/[C@](O)(c2cnc(Cl)n2C)[C@@H]2CC[C@H]2CN2C[C@@]3(CCCc4cc(Cl)ccc43)COc3ccc(cc32)C(=O)NS1(=O)=O` (single isomer, unassigned) [Example 100543], the results for the IC50 in assay [1] (setting [3]) and in assay [2] (setting [4]) were 0.451 nM and 821 nM, respectively.

For the molecule `C[C@@H]1[C@@H](C)C/C=C/[C@](O)(CC(=O)N2CCC2)[C@@H]2CC[C@H]2CN2C[C@@]3(CCCc4cc(Cl)ccc43)COc3ccc(cc32)C(=O)NS1(=O)=O` [Example 100292, (1S,3′R,6′R,7′R,8′E,11′S,12′R)-7′-(2-(1-azetidinyl)-2-oxoethyl)-6-chloro-7′-hydroxy-11′,12′-dimethyl-3,4-dihydro-2H,15′H-spiro[naphthalene-1,22′-[20]oxa[13]thia[1,14]diazatetracyclo [14.7.2.0~3,6~.0~19,24~]pentacosa[8,16,18,24]tetraen]-15′-one 13′,13′-dioxide], the IC50 in assay [1] (setting [3]) stood at 0.115 nM; in assay [2] (setting [4]), 672 nM.

Consider `COC(=O)CN1CCN(C[C@]2(OC)/C=C/C[C@H](C)[C@@H](C)S(=O)(=O)NC(=O)c3ccc4c(c3)N(C[C@@H]3CC[C@H]32)C[C@@]2(CCCc3cc(Cl)ccc32)CO4)CC1` [Example 269, methyl (4-(((1S,3′R,6′R,7′S,8′E,11′S,12′R)-6-chloro-7′-methoxy-11′,12′-dimethyl-13′,13′-dioxido-15′-oxo-3,4-dihydro-2H-spiro[naphthalene-1,22′-[20]oxa[13]thia[1,14]diazatetracyclo[14.7.2.0-3,6˜.0˜19,24˜]pentacosa[8,16,18,24]tetraen]-7′-yl)methyl)-1-piperazinyl)acetate], for which the IC50 in assay [1] (setting [5]) came to 0.104 nM; in assay [2] (setting [6]), 86 nM.

`C=CC[C@@]1(O)/C=C/C[C@H](C)[C@@H](C)S(=O)(=O)NC(=O)c2ccc3c(c2)N(C[C@@H]2CC[C@H]21)C[C@@]1(CCCc2cc(Cl)ccc21)CO3` (single isomer, unassigned) [Example 100131]: the results for the IC50 in assay [1] (setting [3]) and in assay [2] (setting [4]) were 0.163 nM and 144 nM, respectively.

For `CO[C@@]1(CN2CCN(CC(F)F)CC2)/C=C/C[C@H](C)[C@@H](C)S(=O)(=O)NC(=O)c2ccc3c(c2)N(C[C@@H]2CC[C@H]21)C[C@@]1(CCCc2cc(Cl)ccc21)CO3` [Example 306, (1S,3′R,6′R,7′S,8′E,11′S,12′R)-6-chloro-7′-((4-(2,2-difluoroethyl)-1-piperazinyl)methyl)-7′-methoxy-11′,12′-dimethyl-3,4-dihydro-2H,15′H-spiro[naphthalene-1,22′-[20]oxa[13]thia[1,14]diazatetracyclo [14.7.2.0~3,6~.0~19,24~]pentacosa[8,16,18,24]tetraen]-15′-one 13′,13′-dioxide], the IC50 was found to be 0.282 nM in assay [1] (setting [5]) and 246 nM in assay [2] (setting [6]).

As to `CC(C)[C@@]1(O)/C=C/C[C@H](C)[C@@H](C)S(=O)(=O)NC(=O)c2ccc3c(c2)N(C[C@@H]2CC[C@H]21)C[C@@]1(CCCc2cc(Cl)ccc21)CO3` [Example 100210, (1S,3′R,6′R,7′R,8′E,11′S,12′R)-6-chloro-7′-hydroxy-11′,12′-dimethyl-7′-(2-propanyl)-3,4-dihydro-2H,15′H-spiro[naphthalene-1,22′-[20]oxa[13]thia[1,14]diazatetracyclo [14.7.2.0~3,6~.0~19,24~]pentacosa[8,16,18,24]tetraen]-15′-one 13′,13′-dioxide], the IC50 came to 3.47 nM in assay [1] (setting [3]) and 3360 nM in assay [2] (setting [4]).

On to `C[C@@H]1[C@@H](C)CCC[C@@](O)(Cc2ccccn2)[C@@H]2CC[C@H]2CN2C[C@@]3(CCCc4cc(Cl)ccc43)COc3ccc(cc32)C(=O)NS1(=O)=O` [Example 100105, (1S,3′R,6′R,7′R,11′S,12′R)-6-chloro-7′-hydroxy-11′,12′-dimethyl-7′-(2-pyridinylmethyl)-3,4-dihydro-2H,15′H-spiro[naphthalene-1,22′-[20]oxa[13]thia[1,14]diazatetracyclo [14.7.2.0~3,6~.0~19,24~]pentacosa[16,18,24]trien]-15′-one 13′,13′-dioxide], for which the IC50 in assay [1] (setting [3]) was 5.93 nM; in assay [2] (read-out: OPM-2 10% FBS IC50 IP, OPM-2 cells, 10% FBS, 16 h, CellTiter-Glo) it was 3660 nM.

Usually IC50 stands for the concentration at which inhibition is half-maximal.

These data come from patent US10821115B2, “Compounds that inhibit Mcl-1 protein” (priority 2017, dated 2020).
